Results as given in patent EP1196433B1, “CYCLIC PEPTIDE DERIVATIVES AS INHIBITORS OF INTEGRIN ALPHA v BETA 6” (Merck Patent GmbH, priority 1999, dated 2001).
Non-standard residues stand in square brackets, D forms with d. Residues, ends and D or L forms follow the SMILES beside them.

Target: T1, αvβ6 Rezeptor (Homo sapiens, UniProt P06756+P18564)
T1 construct: Die Immobilisierung von löslichem αvβ6 Rezeptor auf Microtiterplatten
Experiment: αvβ6 / fibronectin receptor binding test (competition of peptide with biotinylated fibronectin on immobilised integrin, ELISA read-out)
Conditions: for -log Q / Q (IC50[Substanz] / IC50[EMD 271293]): peptides Cyclo-(Arg-Gly-Asp-Leu-D-Asp-Ala-Leu-Arg-R^1), labelled by R^1; for -log Q: Q = IC50[Substanz] / IC50[EMD 271293]; for Q (IC50[Substanz] / IC50[EMD 271293]): ratio to comparison compound EMD 271293; for Q-Wert = IC50 Testpeptid / IC50 EMD 271293: standard Ac-RTDLDSLR-NH2, Q values of repeated experiments averaged
Text: αvβ6 / Fibronektin Rezeptorbindungstest:
Die hergestellten erfindungsgemäßen Peptide wurden in Lösung zusammen mit kompetetiv wirkenden Fibronektin an den immobiliserten αvβ6 Rezeptor gebunden und der Q-Wert als Maß für die Selektivität der Bindung des zu testenden Peptids an αvβ6 ermittelt. Der Q-Wert berechnet sich dabei aus dem Quotienten der IC50-Werte von Testpeptid und einem Standard. Als Standard diente das lineare Ac-RTDLDSLR-NH2 (Code EMD 271293) (Lit./Patent vgl Pytela et al. Science 231, 1559, (1986)). Der Bindungstest wurde im einzelnen wie folgt durchgeführt: • Die Immobilisierung von löslichem αvβ6 Rezeptor auf Microtiterplatten erfolgte durch Verdünnung der Proteinlösung in TBS++ und anschliessender Inkubation über Nacht bei 4°C (100 µl/Vertiefung). Unspezifische • Bindungsstellen wurden durch Inkubation (2 h, 37°C) mit 3% (w/v) BSA in TBS++ (200 µl/Vertiefung) blockiert. Überschüssiges BSA wurde durch dreimaliges Waschen mit TBSA++ entfernt. Peptide wurden seriell (1:10) in TBSA++ verdünnt und zusammen mit biotinyliertem Fibronektin (2 µg/ ml) mit dem immobilisierten Integrin inkubiert (50 µl Peptid + 50 µl Ligand pro Vertiefung; 2 h; 37°C). Nicht gebundenes Fibronektin und Peptide wurden durch dreimaliges Waschen mit TBSA++ entfernt. Die Detektion des gebundenen Fibronektin erfolgte durch Inkubation (1 h; 37 °C) mit einem alkalische-Phosphatase-gekoppelten anti-Biotin-Antikörper (Biorad) (1:20000 in TBSA++; 100 µl/Vertiefung). Nach dreimaligem Waschen mit TBSA++ erfolgte die kolorimetrische Detektion durch Inkubation (10-15 min; 25°C, im Dunkeln) mit Substratlösung (5 mg Nitrophenylphosphat, 1 ml Ethanolamin, 4 ml H2O; 100 µl/Vertiefung). Die Enzymreaktion wurde durch Zugabe von 0,4 M NaOH (100 µl/Vertiefung) gestoppt. Die Farbintensität wurde bei 405 nm im ELISA-Meßgerät bestimmt und gegen den Nullwert abgeglichen. Als Nullwert dienten Vertiefungen, die nicht mit Rezeptor beschichtet waren. Als Standard wurde Ac-RTDLDSLR-NH2 eingesetzt. Die IC50-Werte für die getesteten Peptide wurden aus einer Graphik abgelesen und daraus zusammen mit dem IC50-Wert des Standardpeptids der Q-Wert des erfindungsgemäßen Peptids ermittelt. Q-Wert = IC50 Testpeptid/IC50 Standard [formula] Q-Werte aus Versuchswiederholungen wurden gemittelt.

[1] = biotinylated fibronectin 2 µg/ml

T1 sequence (P06756 31-992 limits assumed): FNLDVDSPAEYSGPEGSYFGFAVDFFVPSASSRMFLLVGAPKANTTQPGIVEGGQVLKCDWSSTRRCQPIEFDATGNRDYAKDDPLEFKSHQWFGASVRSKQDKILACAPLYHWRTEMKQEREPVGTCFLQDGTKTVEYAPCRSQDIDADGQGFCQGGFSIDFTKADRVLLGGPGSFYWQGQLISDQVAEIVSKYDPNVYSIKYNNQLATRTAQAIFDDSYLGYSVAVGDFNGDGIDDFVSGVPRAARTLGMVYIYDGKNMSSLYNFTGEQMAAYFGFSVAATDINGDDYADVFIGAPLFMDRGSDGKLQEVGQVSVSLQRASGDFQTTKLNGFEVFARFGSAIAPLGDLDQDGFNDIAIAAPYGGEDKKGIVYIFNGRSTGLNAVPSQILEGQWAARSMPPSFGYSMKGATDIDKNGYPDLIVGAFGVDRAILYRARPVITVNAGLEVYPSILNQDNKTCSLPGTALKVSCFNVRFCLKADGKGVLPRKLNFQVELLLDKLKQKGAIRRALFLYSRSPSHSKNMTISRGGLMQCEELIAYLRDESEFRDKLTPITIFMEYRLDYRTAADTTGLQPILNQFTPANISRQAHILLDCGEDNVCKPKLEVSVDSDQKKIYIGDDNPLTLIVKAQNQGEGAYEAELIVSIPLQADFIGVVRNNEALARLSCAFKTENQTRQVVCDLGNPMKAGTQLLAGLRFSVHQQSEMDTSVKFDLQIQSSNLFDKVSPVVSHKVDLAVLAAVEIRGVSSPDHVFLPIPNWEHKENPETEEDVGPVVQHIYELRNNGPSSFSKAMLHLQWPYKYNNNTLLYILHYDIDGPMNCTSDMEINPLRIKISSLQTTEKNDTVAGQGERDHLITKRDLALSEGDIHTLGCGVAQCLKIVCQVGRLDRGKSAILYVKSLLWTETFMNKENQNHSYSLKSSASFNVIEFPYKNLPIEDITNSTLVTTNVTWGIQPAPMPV
T1 sequence (P18564 22-709 limits assumed): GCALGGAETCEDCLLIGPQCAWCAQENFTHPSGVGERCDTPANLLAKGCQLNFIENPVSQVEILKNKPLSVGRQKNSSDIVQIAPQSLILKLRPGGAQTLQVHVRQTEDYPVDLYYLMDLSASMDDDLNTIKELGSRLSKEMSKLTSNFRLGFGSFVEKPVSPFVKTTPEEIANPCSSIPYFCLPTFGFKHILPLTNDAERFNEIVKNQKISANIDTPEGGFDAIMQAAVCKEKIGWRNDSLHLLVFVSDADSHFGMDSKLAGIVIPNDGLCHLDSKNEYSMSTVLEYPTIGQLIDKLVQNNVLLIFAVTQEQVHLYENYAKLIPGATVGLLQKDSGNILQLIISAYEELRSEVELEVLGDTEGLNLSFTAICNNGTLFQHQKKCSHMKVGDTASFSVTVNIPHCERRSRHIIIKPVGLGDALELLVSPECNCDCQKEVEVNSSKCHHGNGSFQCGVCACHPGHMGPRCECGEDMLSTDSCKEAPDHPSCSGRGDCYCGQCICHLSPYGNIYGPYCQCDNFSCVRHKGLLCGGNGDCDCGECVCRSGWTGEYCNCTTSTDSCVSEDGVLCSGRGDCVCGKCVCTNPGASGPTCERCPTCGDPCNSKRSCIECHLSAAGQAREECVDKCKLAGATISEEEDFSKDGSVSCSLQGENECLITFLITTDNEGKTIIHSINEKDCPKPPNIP

CC(C)C[C@@H]1NC(=O)[C@H](C)NC(=O)[C@@H](CC(=O)O)NC(=O)[C@H](CC(C)C)NC(=O)[C@H](CC(=O)O)NC(=O)CNC(=O)[C@H](CCCNC(=N)N)NC(=O)CNC(=O)[C@H](CCCNC(=N)N)NC1=O [EMD 271591, cyclo-(RGDLdALRG)] (cyclo(RGDL[dD]ALRG))
-log Q: -0,322
Q (IC50[Substanz] / IC50[EMD 271293]): 2,1

CC(C)C[C@@H]1NC(=O)[C@H](C)NC(=O)[C@@H](CC(=O)O)NC(=O)[C@H](CC(C)C)NC(=O)[C@H](CC(=O)O)NC(=O)CNC(=O)[C@H](CCCNC(=N)N)NC(=O)CNC(=O)CNC(=O)[C@H](CCCNC(=N)N)NC1=O [EMD 271592, cyclo-(RGDLdALRGG)] (cyclo(RGDL[dD]ALRGG))
-log Q: 1,301
Q (IC50[Substanz] / IC50[EMD 271293]): 0,05

CC(C)C[C@@H]1NC(=O)[C@H](C)NC(=O)[C@@H](CC(=O)O)NC(=O)[C@H](CC(C)C)NC(=O)[C@H](CC(=O)O)NC(=O)CNC(=O)[C@H](CCCNC(=N)N)NC(=O)CNC(=O)CNC(=O)CNC(=O)[C@H](CCCNC(=N)N)NC1=O [EMD 271593] (cyclo(RGDL[dD]ALRGGG))
-log Q: 1,523
Q (IC50[Substanz] / IC50[EMD 271293]): 0,03

CC(C)C[C@@H]1NC(=O)[C@H](C)NC(=O)[C@@H](CC(=O)O)NC(=O)[C@H](CC(C)C)NC(=O)[C@H](CC(=O)O)NC(=O)CNC(=O)[C@H](CCCNC(=N)N)NC(=O)CNC(=O)CNC(=O)CNC(=O)CNC(=O)CNC(=O)CNC(=O)[C@H](CCCNC(=N)N)NC1=O [EMD 271594, cyclo-(RGDLdALRGGGGGG)] (cyclo(RGDL[dD]ALRGGGGGG))
-log Q: 1,301
Q (IC50[Substanz] / IC50[EMD 271293]): 0,05

CC(C)C[C@@H]1NC(=O)[C@H](C)NC(=O)[C@@H](CC(=O)O)NC(=O)[C@H](CC(C)C)NC(=O)[C@H](CC(=O)O)NC(=O)CNC(=O)[C@H](CCCNC(=N)N)NC(=O)CNC(=O)CNC(=O)CNC(=O)CNC(=O)[C@H](CCCNC(=N)N)NC1=O [EMD 272961, cyclo-(RGDLdALRGGGG)] (cyclo(RGDL[dD]ALRGGGG))
-log Q: 1,481
Q (IC50[Substanz] / IC50[EMD 271293]): 0,033

CC(C)C[C@@H]1NC(=O)[C@H](C)NC(=O)[C@@H](CC(=O)O)NC(=O)[C@H](CC(C)C)NC(=O)[C@H](CC(=O)O)NC(=O)CNC(=O)[C@H](CCCNC(=N)N)NC(=O)CNC(=O)CNC(=O)CNC(=O)CNC(=O)CNC(=O)[C@H](CCCNC(=N)N)NC1=O [EMD 272962, cyclo-(RGDLdALRGGGGG)] (cyclo(RGDL[dD]ALRGGGGG))
-log Q: 1,337
Q (IC50[Substanz] / IC50[EMD 271293]): 0,046

CC(=O)N[C@@H](CCCNC(=N)N)C(=O)N[C@H](C(=O)N[C@@H](CC(=O)O)C(=O)N[C@@H](CC(C)C)C(=O)N[C@@H](CC(=O)O)C(=O)N[C@@H](CO)C(=O)N[C@@H](CC(C)C)C(=O)N[C@@H](CCCNC(=N)N)C(N)=O)[C@@H](C)O [compound 271293] (Ac-RTDLDSLR-NH2)
IC50 (IC50 of the standard peptide, printed in brackets beside its Q value, biotinylated fibronectin 2 µg/ml): 75 nM
Q-Wert = IC50 Testpeptid / IC50 EMD 271293 [1]: 1,00

CC(C)C[C@@H]1NC(=O)[C@H](C)NC(=O)[C@@H](CC(=O)O)NC(=O)[C@H](CC(C)C)NC(=O)[C@H](CC(=O)O)NC(=O)CNC(=O)[C@H](CCCNC(=N)N)NC(=O)CNC(=O)[C@H](CCCNC(=N)N)NC1=O [compound 271591] (cyclo(RGDL[dD]ALRG))
Q-Wert = IC50 Testpeptid / IC50 EMD 271293 [1]: 2,1

CC(C)C[C@@H]1NC(=O)[C@H](C)NC(=O)[C@@H](CC(=O)O)NC(=O)[C@H](CC(C)C)NC(=O)[C@H](CC(=O)O)NC(=O)CNC(=O)[C@H](CCCNC(=N)N)NC(=O)CNC(=O)CNC(=O)[C@H](CCCNC(=N)N)NC1=O [compound 271592] (cyclo(RGDL[dD]ALRGG))
Q-Wert = IC50 Testpeptid / IC50 EMD 271293 [1]: 0,05

CC(C)C[C@@H]1NC(=O)[C@H](C)NC(=O)[C@@H](CC(=O)O)NC(=O)[C@H](CC(C)C)NC(=O)[C@H](CC(=O)O)NC(=O)CNC(=O)[C@H](CCCNC(=N)N)NC(=O)CNC(=O)CNC(=O)CNC(=O)[C@H](CCCNC(=N)N)NC1=O [compound 271593] (cyclo(RGDL[dD]ALRGGG))
Q-Wert = IC50 Testpeptid / IC50 EMD 271293 [1]: 0,03

CC(C)C[C@@H]1NC(=O)[C@H](C)NC(=O)[C@@H](CC(=O)O)NC(=O)[C@H](CC(C)C)NC(=O)[C@H](CC(=O)O)NC(=O)CNC(=O)[C@H](CCCNC(=N)N)NC(=O)CNC(=O)CNC(=O)CNC(=O)CNC(=O)CNC(=O)CNC(=O)[C@H](CCCNC(=N)N)NC1=O [compound 271594] (cyclo(RGDL[dD]ALRGGGGGG))
Q-Wert = IC50 Testpeptid / IC50 EMD 271293 [1]: 0,05

CC(C)C[C@@H]1NC(=O)[C@H](C)NC(=O)[C@@H](CC(=O)O)NC(=O)[C@H](CC(C)C)NC(=O)[C@H](CC(=O)O)NC(=O)CNC(=O)[C@H](CCCNC(=N)N)NC(=O)CNC(=O)CNC(=O)CNC(=O)CNC(=O)[C@H](CCCNC(=N)N)NC1=O [compound 272961] (cyclo(RGDL[dD]ALRGGGG))
Q-Wert = IC50 Testpeptid / IC50 EMD 271293 [1]: 0,033

CC(C)C[C@@H]1NC(=O)[C@H](C)NC(=O)[C@@H](CC(=O)O)NC(=O)[C@H](CC(C)C)NC(=O)[C@H](CC(=O)O)NC(=O)CNC(=O)[C@H](CCCNC(=N)N)NC(=O)CNC(=O)CNC(=O)CNC(=O)CNC(=O)CNC(=O)[C@H](CCCNC(=N)N)NC1=O [compound 272962] (cyclo(RGDL[dD]ALRGGGGG))
Q-Wert = IC50 Testpeptid / IC50 EMD 271293 [1]: 0,046

cyclo-(RGDLdALR-Abu) [EMD 273035]
-log Q: 1,553
Q (IC50[Substanz] / IC50[EMD 271293]): 0,028

cyclo-(RGDLdALR-Abu-Abu) [EMD 272914]
-log Q: 1,523
Q (IC50[Substanz] / IC50[EMD 271293]): 0,03

cyclo-(RGDLdALR-Aha) [EMD 272959]
-log Q: 1,444
Q (IC50[Substanz] / IC50[EMD 271293]): 0,036

cyclo-(RGDLdALR-Aha-Aha) [EMD 272958]
-log Q: 1,444
Q (IC50[Substanz] / IC50[EMD 271293]): 0,036
